≈ marks a conversion by molar mass, not a printed value. Where two headings read alike, the source gives them in different places.
How the values were obtained:
Format in all cases: cell-based
[1] = test system: P. aeruginosa ATCC 27853; assay: MIC against P. aeruginosa ATCC 27853; conditions: Pseudomonas aeruginosa, ATCC27853
[2] = test system: E. coli MMX 0121 ΔTolC; assay: MIC against E. coli MMX 0121 ΔTolC; conditions: Escherichia coli
[3] = test system: E. coli ATCC 25922; assay: MIC against E. coli ATCC 25922; conditions: Escherichia coli, ATCC25922
[4] = test system: S. aureus MMX 3035 cErmA; assay: MIC against S. aureus MMX 3035 cErmA; conditions: Staphylococcus aureus, MMX3035CERMA
[5] = test system: E. faecalis ATCC 29212; assay: MIC against E. faecalis ATCC 29212; conditions: Enterococcus faecalis
[6] = test system: S. aureus Micromyx USA 300; assay: MIC against S. aureus Micromyx USA 300; conditions: Staphylococcus aureus, USA300
[7] = test system: E. coli MMX TolC parent strain; assay: MIC against E. coli MMX TolC parent strain; conditions: Escherichia coli
[8] = test system: B. fragilis ATCC 25285; assay: MIC against B. fragilis ATCC 25285; conditions: Bacteroides fragilis, ATCC25285
[9] = test system: S. aureus ATCC 29213; assay: MIC against S. aureus ATCC 29213; conditions: Staphylococcus aureus
[10] = test system: S. pneumoniae MMX 3028 cErmB; assay: MIC against S. pneumoniae MMX 3028 cErmB; conditions: Streptococcus pneumoniae, MMX3028CERMB
[11] = test system: C. difficile BAA 1805; assay: MIC against C. difficile BAA 1805; conditions: Clostridioides difficile, BAA1805
[12] = test system: S. aureus BAA 977 iErmA; assay: MIC against S. aureus BAA 977 iErmA; conditions: Staphylococcus aureus, BAA977
[13] = test system: H. influenzae ATCC 49247; assay: MIC against H. influenzae ATCC 49247; conditions: Haemophilus influenzae, ATCC49247
[14] = test system: P. aeruginosa MMX 3476 Δmex; assay: MIC against P. aeruginosa MMX 3476 Δmex; conditions: Pseudomonas aeruginosa
[15] = test system: E. faecalis MMX 847 Macrolide-Resistant; assay: MIC against E. faecalis MMX 847 Macrolide-Resistant; conditions: Enterococcus faecalis
[16] = test system: P. aeruginosa MMX Mex parent strain; assay: MIC against P. aeruginosa MMX Mex parent strain; conditions: Pseudomonas aeruginosa
[17] = test system: S. pyogenes MMX 946 Macrolide-Resistant; assay: MIC against S. pyogenes MMX 946 Macrolide-Resistant; conditions: Streptococcus pyogenes
[18] = test system: E. coli ATCC 15922; assay: MIC against E. coli ATCC 15922; conditions: Escherichia coli, ATCC15922
[19] = test system: S. pyogenes ATCC 19615; assay: MIC against S. pyogenes ATCC 19615; conditions: Streptococcus pyogenes, ATCC19615; S. pyogenes ATCC 19615; read-out: MIC
[20] = test system: S. pneumoniae ATCC 49619; assay: MIC against S. pneumoniae ATCC 49619; conditions: Streptococcus pneumoniae, ATCC49619; S. pneumoniae ATCC 49619; read-out: MIC
[21] = test system: S. pneumoniae MMX 3031 cMefA; assay: MIC against S. pneumoniae MMX 3031 cMefA; conditions: Streptococcus pneumoniae, MMX3031CMEFA
[22] = S. aureus Micromyx USA 300, read-out: MIC
[23] = ATCC29213, S. aureus ATCC 29213, read-out: MIC

| SMILES | MIC [1] | MIC [2] | MIC [3] | MIC [4] | MIC [7] | MIC [8] | MIC [10] | MIC [12] | MIC [14] | MIC [15] | MIC [16] | MIC [17] | MIC ([5]; ATCC29212, read-out: MIC) | MIC [6, 22] | MIC [9, 23] | MIC [13] | MIC [18] | MIC [20] | other results |
| --- | --- | --- | --- | --- | --- | --- | --- | --- | --- | --- | --- | --- | --- | --- | --- | --- | --- | --- | --- |
| CSC1O[C@H]([C@H](NC(=O)[C@H]2NC[C@@H]3C=C(c4ccccc4)CCO[C@@H]23)[C@H](C)Cl)C(O)[C@@H](O)[C@H]1O (stereo partly shown) [FSA-507031] | > 32 µg/mL | > 32 µg/mL | > 32 µg/mL | > 32 µg/mL | > 32 µg/mL | > 32 µg/mL | > 32 µg/mL | > 32 µg/mL | > 32 µg/mL | > 32 µg/mL | > 32 µg/mL | > 32 µg/mL |  |  |  |  |  |  | MIC ([5]; ATCC29212): > 32 µg/mL; MIC [6]: > 32 µg/mL; MIC ([9]; ATCC29213): > 32 µg/mL; MIC [11]: > 32 µg/mL; MIC ([13]; H. influenzae ATCC 49247, read-out: MIC): 8 µg/mL (≈ 15.6 µM) |
| CSC1O[C@H]([C@H](NC(=O)[C@H]2NC[C@@H]3C=C(c4ccc(F)cc4)CCO[C@@H]23)[C@H](C)Cl)C(O)[C@@H](O)[C@H]1O (stereo partly shown) [FSA-507052] | > 32 µg/mL | > 32 µg/mL |  | > 32 µg/mL | > 32 µg/mL | > 32 µg/mL | > 32 µg/mL | 2 µg/mL (≈ 3.77 µM) | > 32 µg/mL | > 32 µg/mL | > 32 µg/mL | > 32 µg/mL | 1 µg/mL (≈ 1.88 µM) | 0.5 µg/mL (≈ 0.942 µM) | 2 µg/mL (≈ 3.77 µM) | > 32 µg/mL | > 32 µg/mL |  |  |
| CSC1O[C@H]([C@H](NC(=O)[C@H]2NC[C@@H]3C=C(c4ccc(C(F)(F)F)cc4)CCO[C@@H]23)[C@H](C)Cl)C(O)[C@@H](O)[C@H]1O (stereo partly shown) [FSA-507053] | > 64 µg/mL |  |  | > 64 µg/mL | > 64 µg/mL |  |  |  | > 64 µg/mL | > 64 µg/mL | > 64 µg/mL |  | 2 µg/mL (≈ 3.44 µM) | 0.5 µg/mL (≈ 0.861 µM) |  |  | > 64 µg/mL |  | MIC [19]: ≤ 0.06 µg/mL; MIC ([11]; C. difficile BAA 1805, read-out: MIC): 8 µg/mL (≈ 13.8 µM) |
| CSC1O[C@H]([C@H](NC(=O)[C@H]2NC[C@@H]3CC(c4ccccc4)=CCO[C@H]32)[C@H](C)Cl)C(O)[C@@H](O)[C@H]1O (stereo partly shown) [FSA-507056] | > 32 µg/mL | > 32 µg/mL | > 32 µg/mL | > 32 µg/mL | > 32 µg/mL | > 32 µg/mL | > 32 µg/mL | 1 µg/mL (≈ 1.95 µM) | > 32 µg/mL | > 32 µg/mL | > 32 µg/mL | > 32 µg/mL | 2 µg/mL (≈ 3.9 µM) | 0.5 µg/mL (≈ 0.975 µM) | 1 µg/mL (≈ 1.95 µM) | > 32 µg/mL |  |  |  |
| CSC1O[C@H]([C@H](NC(=O)[C@H]2NC[C@@H]3CC(c4ccc(F)cc4)=CCO[C@H]32)[C@H](C)Cl)C(O)[C@@H](O)[C@H]1O (stereo partly shown) [FSA-507057] | > 64 µg/mL |  |  | > 64 µg/mL | > 64 µg/mL |  |  | 1 µg/mL (≈ 1.88 µM) | > 64 µg/mL | > 64 µg/mL | > 64 µg/mL | > 64 µg/mL | 1 µg/mL (≈ 1.88 µM) | 1 µg/mL (≈ 1.88 µM) | 2 µg/mL (≈ 3.77 µM) |  | > 64 µg/mL | ≤ 0.06 µg/mL | MIC [21]: ≤ 0.06 µg/mL |
| CSC1O[C@H]([C@H](NC(=O)[C@H]2NC[C@@H]3CC(c4ccc(C(F)(F)F)cc4)=CCO[C@H]32)[C@H](C)Cl)C(O)[C@@H](O)[C@H]1O (stereo partly shown) [FSA-507060] | > 64 µg/mL |  |  |  |  |  |  | 1 µg/mL (≈ 1.72 µM) | > 64 µg/mL |  | > 64 µg/mL |  | 8 µg/mL (≈ 13.8 µM) | 0.12 µg/mL (≈ 0.207 µM) | 2 µg/mL (≈ 3.44 µM) |  |  | 0.5 µg/mL (≈ 0.861 µM) |  |

— US20220073554A1, “LINCOSAMIDE ANTIBIOTICS AND USES THEREOF” (President and Fellows of Harvard College, priority 2017, published 2022)
